Source: patent US9695155B2, “Herbicidal substituted pyrimidinyloxy benzene compounds” (E. I. DU PONT DE NEMOURS AND COMPANY, priority 2013, dated 2017)

Legend:
[1] = system: corn; experiment: Test A preemergence; type: in vivo, Zea mays; conditions: for Corn plant response rating: 500 g ai/ha
Procedure, shortened: (§1)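 Compounds in non-phytotoxic solvent with surfactant applied as soil spray preemergence, or postemergence to plants 2-10 cm at one- to two-leaf stage, in loam/sand. After approximately 10 days in greenhouse, injury rated visually versus untreated controls, 0 (no effect) to 100 (complete control).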

[2] = system: barnyardgrass; experiment: Test C flooded paddy test; type: in vivo, Echinochloa crus-galli; conditions: Flood, scale 0 to 100 (0 no effect, 100 complete control), 13 to 15 days
Excerpt: (§2) At time of treatment, test pots were flooded to 3 cm above the soil surface, treated by application of test compounds directly to the paddy water, and then maintained at that water depth for the duration of the test. Treated plants and controls were maintained in a greenhouse for 13 to 15 days, after which time all species were compared to controls and visually evaluated. […] A dash (-) response means no test result.

[3] = system: barnyardgrass; experiment: Test A preemergence; type: in vivo, Echinochloa crus-galli; conditions: for Barnyardgrass plant response rating: 500 g ai/ha
Procedure, shortened: as §1

[4] = system: Heteranthera limosa; experiment: Test B flooded paddy test; type: in vivo; conditions: Flood, 250 g ai/ha; 0 to 100 scale where 0 is no effect and 100 is complete control
Procedure, shortened: (§3)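 Compound added straight to paddy water, with pots kept flooded 3 cm above soil, on plants grown to the 2-leaf stage. Visual scoring 0-100 (100 = complete control) against untreated controls after 13 to 15 greenhouse days.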

[5] = system: pigweed; experiment: Test A postemergence; type: in vivo, Amaranthus retroflexus
Procedure, shortened: as §1

[6] = system: corn; experiment: Test A postemergence; type: in vivo, Zea mays
Procedure, shortened: as §1

[7] = system: sedge, umbrella; experiment: Test C flooded paddy test; type: in vivo, Cyperus difformis; conditions: Flood, scale 0 to 100 (0 no effect, 100 complete control), 13 to 15 days
Excerpt: as §2

[8] = system: velvetleaf; experiment: Test A preemergence; type: in vivo, Abutilon theophrasti; conditions: for Velvetleaf plant response rating: 500 g ai/ha
Procedure, shortened: as §1

[9] = system: pigweed; experiment: Test A preemergence; type: in vivo, Amaranthus retroflexus; conditions: for Pigweed plant response rating: 500 g ai/ha
Procedure, shortened: as §1

[10] = system: morningglory; experiment: Test A preemergence; type: in vivo, Ipomoea spp.
Procedure, shortened: as §1

[11] = system: ducksalad; experiment: Test C flooded paddy test; type: in vivo, Heteranthera limosa; conditions: Flood, scale 0 to 100 (0 no effect, 100 complete control), 13 to 15 days
Excerpt: as §2

[12] = system: barnyardgrass; experiment: Test A postemergence; type: in vivo, Echinochloa crus-galli
Procedure, shortened: as §1

[13] = system: morningglory; experiment: Test A postemergence; type: in vivo, Ipomoea spp.
Procedure, shortened: as §1

[14] = system: sedge, umbrella; experiment: Test B flooded paddy test; type: in vivo, Cyperus difformis; conditions: Flood, 250 g ai/ha; 0 to 100 scale where 0 is no effect and 100 is complete control
Procedure, shortened: as §3

[15] = system: rice; experiment: Test B flooded paddy test; type: in vivo, Oryza sativa; conditions: Flood, 250 g ai/ha; 0 to 100 scale where 0 is no effect and 100 is complete control
Procedure, shortened: as §3

[16] = system: giant foxtail; experiment: Test A postemergence; type: in vivo, Setaria faberii
Procedure, shortened: as §1

[17] = system: velvetleaf; experiment: Test A postemergence; type: in vivo, Abutilon theophrasti
Procedure, shortened: as §1

[18] = system: rice; experiment: Test C flooded paddy test; type: in vivo, Oryza sativa; conditions: Flood, scale 0 to 100 (0 no effect, 100 complete control), 13 to 15 days
Excerpt: as §2

[19] = system: large (Lg) crabgrass; experiment: Test A preemergence; type: in vivo, Digitaria sanguinalis; conditions: for Crabgrass, Large plant response rating: 500 g ai/ha
Procedure, shortened: as §1

[20] = system: wheat; experiment: Test A postemergence; type: in vivo, Triticum aestivum
Procedure, shortened: as §1

[21] = system: barnyardgrass; experiment: Test B flooded paddy test; type: in vivo, Echinochloa crus-galli; conditions: Flood, 250 g ai/ha; 0 to 100 scale where 0 is no effect and 100 is complete control
Procedure, shortened: as §3

[22] = system: large (Lg) crabgrass; experiment: Test A postemergence; type: in vivo, Digitaria sanguinalis
Procedure, shortened: as §1

[23] = system: giant foxtail; experiment: Test A preemergence; type: in vivo, Setaria faberii; conditions: for Foxtail, Giant plant response rating: 500 g ai/ha
Procedure, shortened: as §1

[24] = system: wheat; experiment: Test A preemergence; type: in vivo, Triticum aestivum; conditions: for Wheat plant response rating: 500 g ai/ha
Procedure, shortened: as §1

[25] = 0 to 100 scale where 0 is no effect and 100 is complete control
[26] = 125 g ai/ha, 0 to 100 scale, 0 no effect, 100 complete control
[27] = 500 g ai/ha, 0 to 100 scale where 0 is no effect and 100 is complete control
[28] = 125 g ai/ha, 0 to 100 scale where 0 is no effect and 100 is complete control
[29] = 0 to 100 scale, 0 no effect, 100 complete control, approx. 10 days
[30] = 500 g ai/ha, 0 to 100 scale, 0 no effect, 100 complete control

C[Si](C)(C)C#Cc1cccc(Oc2ncc(Cl)cn2)c1-n1cc(Br)cn1 [Compound 293]
0: Corn plant response rating (0 to 100 scale) ([1]; 125 g ai/ha) | Corn plant response rating [1, 25] | Plant response rating, Barnyardgrass ([2]; 31 g ai/ha) | Plant response rating, Barnyardgrass ([2]; 62 g ai/ha) | Plant response rating, Barnyardgrass ([2]; 125 g ai/ha) | Barnyardgrass plant response rating (0 to 100 scale, 0 is no effect, 100 is complete control) ([3]; 125 g ai/ha) | Plant response rating, Corn [6, 26] | Velvetleaf plant response rating (0 to 100 scale) ([8]; 125 g ai/ha) | Velvetleaf plant response rating [8, 25] | Morningglory plant response rating (0 to 100 scale) ([10]; 125 g ai/ha) | Morningglory plant response rating [10, 27] | Plant response rating, Rice [15] | Plant response rating, Rice ([18]; 31 g ai/ha) | Plant response rating, Rice ([18]; 62 g ai/ha) | Plant response rating, Rice ([18]; 125 g ai/ha) | Plant response rating, Wheat [20, 26] | Plant response rating, Wheat [20, 27] | Plant response rating, Barnyardgrass [21] | Wheat plant response rating (0 to 100 scale) ([24]; 125 g ai/ha) | Wheat plant response rating [24, 25]
40: Plant response rating, Ducksalad ([11]; 62 g ai/ha) | Crabgrass, Large plant response rating (0 to 100 scale) ([19]; 125 g ai/ha)
75: Plant response rating, Sedge, Umbrella ([7]; 62 g ai/ha) | Plant response rating, Ducksalad ([11]; 125 g ai/ha)
10: Barnyardgrass plant response rating [3, 25] | Plant response rating, Barnyardgrass [12, 26] | Plant response rating, Barnyardgrass [12, 27] | Plant response rating, Morningglory [13, 26]
90: Plant response rating, Pigweed [5, 27] | Crabgrass, Large plant response rating [19, 25] | Foxtail, Giant plant response rating [23, 25]
20: Plant response rating, Corn [6, 27] | Pigweed plant response rating (0 to 100 scale) ([9]; 125 g ai/ha) | Plant response rating, Foxtail, Giant [16, 26] | Plant response rating, Crabgrass, Large [22, 26] | Foxtail, Giant plant response rating (0 to 100 scale) ([23]; 125 g ai/ha)
85: Plant response rating, Sedge, Umbrella ([7]; 125 g ai/ha)
80: Plant response rating, Ducksalad [4] | Pigweed plant response rating [9, 25] | Plant response rating, Sedge, Umbrella [14] | Plant response rating, Velvetleaf [17, 27]
30: Plant response rating, Ducksalad ([11]; 31 g ai/ha) | Plant response rating, Morningglory [13, 27] | Plant response rating, Foxtail, Giant [16, 27] | Plant response rating, Crabgrass, Large [22, 27]
60: Plant response rating, Pigweed [5, 26] | Plant response rating, Sedge, Umbrella ([7]; 31 g ai/ha) | Plant response rating, Velvetleaf [17, 26]

Clc1cnc(Oc2ccccc2-n2cnc(Br)c2)nc1 [Compound 34]
10: Plant response rating, Barnyardgrass ([2]; 250 g ai/ha) | Plant response rating, Corn [6, 28]
80: Velvetleaf plant response rating [8, 29] | Plant response rating, Pigweed [9, 28] | Plant response rating, Morningglory [13, 30] | Plant response rating, Velvetleaf [17, 28]
20: Plant response rating, Corn [6, 30] | Plant response rating, Ducksalad ([11]; 125 g ai/ha) | Plant response rating, Barnyardgrass [12, 28] | Plant response rating, Wheat [20, 30] | Plant response rating, Barnyardgrass [21]
70: Plant response rating, Sedge, Umbrella ([7]; 250 g ai/ha) | Plant response rating, Foxtail, Giant [16, 30] | Plant response rating, Crabgrass, Large [19, 28]
50: Barnyardgrass plant response rating [3, 29] | Plant response rating, Barnyardgrass [12, 30] | Plant response rating, Crabgrass, Large [22, 28]
60: Plant response rating, Velvetleaf [8, 28] | Plant response rating, Morningglory [13, 28] | Plant response rating, Crabgrass, Large [22, 30]
0: Plant response rating, Corn [1, 28] | Corn plant response rating [1, 29] | Plant response rating, Barnyardgrass ([2]; 31 g ai/ha) | Plant response rating, Barnyardgrass ([2]; 62 g ai/ha) | Plant response rating, Barnyardgrass ([2]; 125 g ai/ha) | Plant response rating, Barnyardgrass [3, 28] | Plant response rating, Sedge, Umbrella ([7]; 31 g ai/ha) | Plant response rating, Sedge, Umbrella ([7]; 62 g ai/ha) | Plant response rating, Sedge, Umbrella ([7]; 125 g ai/ha) | Plant response rating, Ducksalad ([11]; 31 g ai/ha) | Plant response rating, Ducksalad ([11]; 62 g ai/ha) | Plant response rating, Rice ([18]; 31 g ai/ha) | Plant response rating, Rice ([18]; 62 g ai/ha) | Plant response rating, Rice ([18]; 125 g ai/ha) | Plant response rating, Rice ([18]; 250 g ai/ha) | Plant response rating, Wheat [20, 28] | Plant response rating, Wheat [24, 28] | Wheat plant response rating [24, 29]
90: Plant response rating, Ducksalad [4] | Plant response rating, Pigweed [5, 28] | Plant response rating, Sedge, Umbrella [14] | Crabgrass, Large plant response rating [19, 29]
30: Plant response rating, Rice [15] | Plant response rating, Foxtail, Giant [16, 28] | Plant response rating, Foxtail, Giant [23, 28]
75: Plant response rating, Ducksalad ([11]; 250 g ai/ha)
100: Plant response rating, Pigweed [5, 30] | Pigweed plant response rating [9, 29] | Plant response rating, Velvetleaf [17, 30] | Foxtail, Giant plant response rating [23, 29]
